Structures are written as SMILES. Like-named read-outs stand apart in the source and are kept apart here. Where a SMILES comes first, the peptide text is derived from it. [ ]: non-standard residue; d: D form. Lys(Me3) = C[N+](C)(C)CCCC[C@H](N)C(=O)O

The values below come from publication PMC7181051, “Probing the Protein-Protein Interaction between the ATRXADD Domain and the Histone H3 Tail” (Molecules, 2020).

For this experiment, the target named is T1, ATRXADD (Homo sapiens, UniProt P46100).
T1 construct: The pGEX-GP-2-ATRX ADD plasmid (Addgene plasmid #59698) [17] was transformed into BL21 cells for expression and purification; GST (N, cleaved yes); peptides GenScript #59698; host or cells: E. coli BL21
T1 sequence (P46100 159-296 limits assumed): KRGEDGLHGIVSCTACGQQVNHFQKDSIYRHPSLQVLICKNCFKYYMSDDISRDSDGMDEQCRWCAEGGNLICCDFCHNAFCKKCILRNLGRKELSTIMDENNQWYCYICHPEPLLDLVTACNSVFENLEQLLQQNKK
Briefly: Fluorescence polarization (FP) displacement assay. The experiment is classed as binding. Conditions: for disruption of the H3:ATRXADD PPI in the FP assay, in words: truncated and modified H3 peptides.

Where [1] appears, read: disruption of H3_1-15K9me3-FAM (0.75 µM):ATRXADD (5 µM) PPI, PBS, highest concentration tested 100 µM, ND = no displacement, read-out: FP Assay IC50.

`C[C@H](N)C(=O)N[C@@H](CCCNC(=N)N)C(=O)N[C@H](C(=O)N[C@@H](CCCC[N+](C)(C)C)C(=O)N[C@@H](CCC(N)=O)C(=O)N[C@H](C(=O)N[C@@H](C)C(=O)N[C@@H](CCCNC(=N)N)C(=O)N[C@@H](CCCC[N+](C)(C)C)C(=O)N[C@@H](CO)C(=O)N[C@H](C(=O)O)[C@@H](C)O)[C@@H](C)O)[C@@H](C)O` [H3_1-11K4me3K9me3]: the “disruption of the H3:ATRXADD PPI in the FP assay, in words” value (“disruption of the H3:ATRXADD PPI” below) is “significantly reduced the activity”. Also, the IC50 under setting [1] is at least 100 µM.

For `C[C@H](NC(=O)[C@@H](NC(=O)[C@H](CCC(N)=O)NC(=O)[C@H](CCCC[N+](C)(C)C)NC(=O)[C@@H](N)[C@@H](C)O)[C@@H](C)O)C(=O)N[C@@H](CCCNC(=N)N)C(=O)N[C@@H](CCCC[N+](C)(C)C)C(=O)N[C@@H](CO)C(=O)O` [H3_3-10K4me3K9me3] (H-T[Lys(Me3)]QTAR[Lys(Me3)]S-OH; N-terminus and C-terminus assumed), the IC50 under setting [1] was above 100 µM.

Turning to `C[C@H](N)C(=O)N[C@@H](CCCNC(=N)N)C(=O)N[C@H](C(=O)N[C@@H](CCCC[N+](C)(C)C)C(=O)N[C@@H](CCC(N)=O)C(=O)N[C@H](C(=O)N[C@@H](C)C(=O)O)[C@@H](C)O)[C@@H](C)O` [Peptide H3_1-7K4me3] (H-ART[Lys(Me3)]QTA-OH), the IC50 is above 100 µM.

With `C[C@@H](O)[C@H](NC(=O)[C@H](CCC(N)=O)NC(=O)[C@H](CCCCN)NC(=O)[C@@H](NC(=O)[C@@H](N)CCCNC(=N)N)[C@@H](C)O)C(=O)O` [Peptide H3_2-6] (H-RTKQT-OH; N-terminus and C-terminus assumed), the half-inhibitory concentration (IC50) is above 100 µM and the “disruption of the H3:ATRXADD PPI” value is “inactive”.

For the molecule `C[C@@H](O)[C@H](N)C(=O)N[C@@H](CCCCN)C(=O)N[C@@H](CCC(N)=O)C(=O)O` [Peptide H3_3-5] (H-Thr-Lys-Gln-OH; N-terminus and C-terminus assumed), the “disruption of the H3:ATRXADD PPI” value was “inactive”. Moreover, under setting [1], the IC50 is above 100 µM.

In the case of `C[C@H](NC(=O)[C@@H](NC(=O)[C@H](CCC(N)=O)NC(=O)[C@H](CCCCN)NC(=O)[C@@H](N)[C@@H](C)O)[C@@H](C)O)C(=O)N[C@@H](CCCNC(=N)N)C(=O)O` [Peptide H3_3-8] (H-TKQTAR-OH; N-terminus and C-terminus assumed), the IC50 is above 100 µM and the “disruption of the H3:ATRXADD PPI” value was “inactive”.

With `C[C@H](NC(=O)[C@@H](NC(=O)[C@H](CCC(N)=O)NC(=O)[C@H](CCCCN)NC(=O)[C@@H](N)[C@@H](C)O)[C@@H](C)O)C(=O)N[C@@H](CCCNC(=N)N)C(=O)N[C@@H](CCCC[N+](C)(C)C)C(=O)N[C@@H](CO)C(=O)N[C@H](C(=O)O)[C@@H](C)O` [Peptide H3_3-11K9me3] (H-TKQTAR[Lys(Me3)]ST-OH; N-terminus and C-terminus assumed), the “disruption of the H3:ATRXADD PPI” value is given as “completely abolished activity”. The IC50 under setting [1] is above 100 µM.

For `C[C@H](N)C(=O)N[C@@H](CCCNC(=N)N)C(=O)N[C@@H](CCCC[N+](C)(C)C)C(=O)N[C@@H](CO)C(=O)N[C@H](C(=O)O)[C@@H](C)O` [Peptide H3_7-11K9me3] (H-AR[Lys(Me3)]ST-OH; N-terminus and C-terminus assumed), the IC50 was above 100 µM and the “disruption of the H3:ATRXADD PPI” value is “inactive”.
